Assay results published in US8445510B2, “Fused bicyclic kinase inhibitors” (OSI Pharmaceuticals, LLC, priority 2011, dated 2013).

Experiments:
[1] = system: Karpas-299 cells; test: Karpas-299 cell proliferation assay (CellTiter-Glo); assay type: cell-based; conditions: Homo sapiens, 72 h; Karpas-299 cell line (NPM-ALK); 3 days incubation; at least duplicate experiments; read-out: Prolif. IC50
[2] = molecular target: T1, RON (Homo sapiens, UniProt Q04912); test: sfRON cell mechanistic assay (HeLa), phosphorylated RON ELISA; assay type: cell-based; conditions: HeLa cells transfected with sfRON; inhibition of phosphorylated RON; four hours incubation; at least duplicate experiments; read-out: sfRON mech IC50
T1 sequence (Q04912 913-1400): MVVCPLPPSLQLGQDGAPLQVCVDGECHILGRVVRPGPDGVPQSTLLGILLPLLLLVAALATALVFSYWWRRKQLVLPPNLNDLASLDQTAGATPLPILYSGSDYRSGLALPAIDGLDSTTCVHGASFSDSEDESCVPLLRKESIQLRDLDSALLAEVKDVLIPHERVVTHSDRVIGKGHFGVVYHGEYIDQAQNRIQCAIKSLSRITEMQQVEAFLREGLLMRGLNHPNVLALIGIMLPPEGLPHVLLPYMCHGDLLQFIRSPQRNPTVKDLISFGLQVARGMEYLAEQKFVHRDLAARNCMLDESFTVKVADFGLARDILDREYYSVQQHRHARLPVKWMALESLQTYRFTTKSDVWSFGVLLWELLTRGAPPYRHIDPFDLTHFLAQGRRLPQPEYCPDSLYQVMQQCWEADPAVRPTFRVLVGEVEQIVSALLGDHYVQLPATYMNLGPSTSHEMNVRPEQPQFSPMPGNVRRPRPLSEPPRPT
How it was run: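 HeLa cells transiently transfected with sfRON plasmid, then exposed 4 h at 37 °C to a 6-point compound series (typically 10 μM to 3 nM, 0.5% DMSO). Phospho-RON (pY1238/1239) in lysates measured by sandwich ELISA with luminescence. IC50 from 4-parameter fit of percent-of-DMSO-control data, at least duplicate runs.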

| Compound | IC50 [1] [nM] | IC50 [2] [nM] |
| --- | --- | --- |
| Cc1c(-c2cnc3[nH]cc([C@H](C)c4c(OC(F)F)ccc(F)c4Cl)c3c2)cnn1C1CCNCC1 [Example 96, 3-{(1S)-1-[2-Chloro-6-(difluoromethoxy)-3-fluorophenyl]ethyl}-5-[5-methyl-1-(piperidin-4-yl)-1H-pyrazol-4-yl]-1H-pyrrolo[2,3-b]pyridine] | ≤ 50 | ≤ 200 |
| CC(=O)N1CCC(n2ncc(-c3cnc4[nH]cc([C@H](C)c5c(OC(F)F)ccc(F)c5Cl)c4c3)c2C)CC1 [Example 97, 1-{4-[4-(3-{(1S)-1-[2-Chloro-6-(difluoromethoxy)-3-fluorophenyl]ethyl}-1H-pyrrolo[2,3-b]pyridin-5-yl)-5-methyl-1H-pyrazol-1-yl]piperidin-1-yl}ethanone] | ≤ 50 | ≤ 200 |
| COc1ccc(F)c(Cl)c1[C@@H](C)c1c[nH]c2ncc(-c3cn([C@H]4CC[C@H](O)CC4)nc3OC)cc12 [Example 99, trans-4-(4-{3-[(1S)-1-(2-chloro-3-fluoro-6-methoxyphenyl)ethyl]-1H-pyrrolo[2,3-b]pyridin-5-yl}-3-methoxy-1H-pyrazol-1-yl)cyclohexanol] | 50 to 200 | ≤ 200 |
| COc1nn([C@H]2CC[C@H](O)CC2)cc1-c1cnc2[nH]cc([C@H](C)c3c(OC(F)F)ccc(F)c3Cl)c2c1 [Example 100, trans-4-[4-(3-{(1S)-1-[2-chloro-6-(difluoromethoxy)-3-fluorophenyl]ethyl}-1H-pyrrolo[2,3-b]pyridin-5-yl)-3-methoxy-1H-pyrazol-1-yl]cyclohexanol] | 50 to 200 | ≤ 200 |
| Cc1c(-c2cnc3[nH]cc([C@H](C)c4c(O)ccc(F)c4Cl)c3c2)cnn1[C@H]1CC[C@H](O)CC1 [Example 102, 3-Chloro-4-fluoro-2-[(1S)-1-{5-[1-(trans-4-hydroxycyclohexyl)-5-methyl-1H-pyrazol-4-yl]-1H-pyrrolo[2,3-b]pyridin-3-yl}ethyl]phenol] | 50 to 200 | 200 to 1000 |
| CCOc1ccc(F)c(Cl)c1[C@@H](C)c1c[nH]c2ncc(-c3cnn([C@H]4CC[C@H](O)CC4)c3C)cc12 [Example 103, trans-4-(4-{3-[(1S)-1-(2-Chloro-6-ethoxy-3-fluorophenyl)ethyl]-1H-pyrrolo[2,3-b]pyridin-5-yl}-5-methyl-1H-pyrazol-1-yl)cyclohexanol] | ≤ 50 | ≤ 200 |
| Cc1c(-c2cnc3[nH]cc([C@H](C)c4c(OC(C)C)ccc(F)c4Cl)c3c2)cnn1[C@H]1CC[C@H](O)CC1 [Example 104, trans-4-[4-(3-{(1S)-1-[2-Chloro-3-fluoro-6-(propan-2-yloxy)phenyl]ethyl}-1H-pyrrolo[2,3-b]pyridin-5-yl)-5-methyl-1H-pyrazol-1-yl]cyclohexanol] | ≤ 50 | 200 to 1000 |
| Cc1c(-c2cnc3[nH]cc([C@H](C)c4c(OCC(F)(F)F)ccc(F)c4Cl)c3c2)cnn1[C@H]1CC[C@H](O)CC1 [Example 105, trans-4-[4-(3-{(1S)-1-[2-Chloro-3-fluoro-6-(2,2,2-trifluoroethoxy)-phenyl]ethyl}-1H-pyrrolo[2,3-b]pyridin-5-yl)-5-methyl-1H-pyrazol-1-yl]cyclohexanol] | ≤ 50 | ≤ 200 |
| COc1cc(OC)c(Cl)c([C@@H](C)c2c[nH]c3ncc(-c4cnn([C@H]5CC[C@H](O)CC5)c4C)cc23)c1Cl [Example 106, trans-4-(4-{3-[(1S)-1-(2,6-Dichloro-3,5-dimethoxyphenyl)ethyl]-1H-pyrrolo[2,3-b]pyridin-5-yl}-5-methyl-1H-pyrazol-1-yl)cyclohexanol] | 200 to 1000 | 200 to 1000 |
| [2H]C([2H])([2H])Oc1ccc(F)c(Cl)c1[C@@H](C)c1c[nH]c2ncc(-c3cnn([C@H]4CC[C@H](O)CC4)c3C)cc12 [Example 107, trans-4-(4-{3-[(1S)-1-{2-Chloro-3-fluoro-6-[(^2H3)methyloxy]phenyl}ethyl]-1H-pyrrolo[2,3-b]pyridin-5-yl}-5-methyl-1H-pyrazol-1-yl)cyclohexanol] | 50 to 200 | 200 to 1000 |
| Cc1c(-c2cnc3[nH]cc(C(C#N)c4c(Cl)ccc(F)c4Cl)c3c2)cnn1[C@H]1CC[C@H](O)CC1 (stereo partly drawn) [Example 108, (2,6-Dichloro-3-fluorophenyl){5-[1-(trans-4-hydroxycyclohexyl)-5-methyl-1H-pyrazol-4-yl]-1H-pyrrolo[2,3-b]pyridin-3-yl}acetonitrile] | 200 to 1000 | > 1000 |
| [2H][C@@](C)(c1c(OC)ccc(F)c1Cl)c1c[nH]c2ncc(-c3cnn([C@H]4CC[C@H](O)CC4)c3C)cc12 [Example 110, trans-4-(4-{3-[(1S)-1-(2-Chloro-3-fluoro-6-methoxyphenyl)(1-^2H)ethyl]-1H-pyrrolo[2,3-b]pyridin-5-yl}-5-methyl-1H-pyrazol-1-yl)cyclohexanol] | ≤ 50 | 200 to 1000 |
| [2H]C([2H])([2H])[C@H](c1c(OC)ccc(F)c1Cl)c1c[nH]c2ncc(-c3cnn([C@H]4CC[C@H](O)CC4)c3C)cc12 [Example 111, trans-4-(4-{3-[(1S)-1-(2-Chloro-3-fluoro-6-methoxyphenyl)(2,2,2-^2H3)ethyl]-1H-pyrrolo[2,3-b]pyridin-5-yl}-5-methyl-1H-pyrazol-1-yl)cyclohexanol] | ≤ 50 | 200 to 1000 |
| COc1ccc(F)c(Cl)c1[C@@H](CF)c1c[nH]c2ncc(-c3cnn([C@H]4CC[C@H](O)CC4)c3C)cc12 [Example 121, trans-4-(4-{3-[(1S)-1-(2-Chloro-3-fluoro-6-methoxyphenyl)-2-fluoroethyl]-1H-pyrrolo[2,3-b]pyridin-5-yl}-5-methyl-1H-pyrazol-1-yl)cyclohexanol] | ≤ 50 | 200 to 1000 |
| Cc1c(-c2cnc3[nH]cc([C@@H](CF)c4c(OC(F)F)ccc(F)c4Cl)c3c2)cnn1[C@H]1CC[C@H](O)CC1 [Example 123, trans-4-[4-(3-{(1R)-1-[2-chloro-6-(difluoromethoxy)-3-fluorophenyl]-2-fluoroethyl}-1H-pyrrolo[2,3-b]pyridin-5-yl)-5-methyl-1H-pyrazol-1-yl]cyclohexanol] | 50 to 200 | 200 to 1000 |
| Cc1c(-c2cnc3[nH]cc([C@H](CF)c4c(OC(F)F)ccc(F)c4Cl)c3c2)cnn1[C@H]1CC[C@H](O)CC1 [Example 124, trans-4-[4-(3-{(1S)-1-[2-chloro-6-(difluoromethoxy)-3-fluorophenyl]-2-fluoroethyl}-1H-pyrrolo[2,3-b]pyridin-5-yl)-5-methyl-1H-pyrazol-1-yl]cyclohexanol] | ≤ 50 | ≤ 200 |
| C[C@H](c1c(OC(F)F)ccc(F)c1Cl)c1c[nH]c2ncc(-c3cnc(N4CCC(O)CC4)n3C)cc12 [Example 125, 1-[5-(3-{(1S)-1-[2-Chloro-6-(difluoromethoxy)-3-fluorophenyl]ethyl}-1H-pyrrolo[2,3-b]pyridin-5-yl)-1-methyl-1H-imidazol-2-yl]piperidin-4-ol] | ≤ 50 | ≤ 200 |
| C[C@H](c1c(OC(F)F)ccc(F)c1Cl)c1c[nH]c2ncc(-c3cnc([C@H]4CC[C@H](O)CC4)n3C)cc12 [Example 126, trans-4-[5-(3-{(1S)-1-[2-Chloro-6-(difluoromethoxy)-3-fluorophenyl]ethyl}-1H-pyrrolo[2,3-b]pyridin-5-yl)-1-methyl-1H-imidazol-2-yl]cyclohexanol] | ≤ 50 | ≤ 200 |
